Test results published in patent US10208056B2, “Condensed tricyclic compounds as protein kinase inhibitors” (FUNDACIÓN DEL SECTOR PÚBLICO ESTATAL CENTRO NACIONAL DE …, priority 2015, dated 2019).
pEC50, pIC50: −log10 of the molar value.

Experiments:
[1] = test system: MV4:11; assay: In vitro cell proliferation assay (CellTiter-Glo), MV4:11; assay type: cell-based; conditions: Homo sapiens, MV4-11; growth inhibition, semiquantitative; read-out: GI50 MV4:11
Experimental: (§1) The in vitro potency of the compounds was measured by the cell proliferation assay CellTiter-Glo® Luminescent Cell Viability Assay, commercially available from Promega Corp., Madison, Wis. This homogeneous assay method is based on the recombinant expression of Coleoptera luciferase (U.S. Pat. No. 5,583,024; U.S. Pat. No. 5,674,713; U.S. Pat. No. 5,700,670) and determines the number of viable cells in culture based on quantitation of the ATP present, an indicator of metabolically active cells (Crouch et al (1993) J. Immunol. Meth. 160:81-88; U.S. Pat. No. 6,602,677). The CellTiterGlo® Assay was conducted […] it amenable to automated high throughput screening (HTS) (Cree et al (1995) AntiCancer Drugs 6:398-404).
(§2) The homogeneous assay procedure involves adding the single reagent (CellTiter-Glo® Reagent) directly to cells cultured in serum-supplemented medium. Cell washing, removal of medium and multiple pipetting steps are not required. The system detects as few as 15 cells/well in a 96-well format in 10 minutes after adding reagent and mixing.
(§3) The homogeneous “add-mix-measure” format results in cell lysis and generation of a luminescent signal proportional to the amount of ATP present. The amount of ATP is directly proportional to the number of cells present in culture. The CellTiter-Glo® Assay generates a “glow-type” luminescent signal, produced by the luciferase reaction, which has a half-life generally greater than five hours, depending on cell type and medium used. Viable cells are reflected in relative luminescence units (RLU). The substrate, Beetle Luciferin, is oxidatively decarboxylated by recombinant firefly luciferase with concomitant conversion of ATP to AMP and generation of photons. The extended half-life eliminates the need to use reagent injectors and provides flexibility for continuous or batch mode processing of multiple plates. This cell proliferation assay can be used with various multiwell formats, e.g. 96 or 384 well format. Data can be recorded by luminometer or CCD camera imaging device. The luminescence output is presented as relative light units (RLU), measured over time.

[2] = test system: SW620; assay: In vitro cell proliferation assay (CellTiter-Glo), SW620; assay type: cell-based, human; conditions: Homo sapiens, SW-620; growth inhibition, semiquantitative; read-out: GI50 SW620
Experimental: as §1, §2, §3

[3] = molecular target: T1, intracellular CDK8 (Homo sapiens (Human), UniProt P49336); assay: Cellular CDK8 inhibition assay, western blot P-STAT1 (S727) in IFN-γ treated SW620 cells; assay type: cell-based; conditions: SW620, IFNγ treated, semiquantitative; read-out: SW620 P-STAT1(S727) w IFNγ
Experimental: Compounds can be screened for their ability to inhibit intracellular CDK8 using a western blot assay to detect phosphorylation of the CDK8 substrate STAT1 (S727) in IFN-γ treated cells. SW620 cells are plated at 1*10^6 cells per well in 6-well plates (Solmeglas 13118) in RPMI media (Sigma-Aldrich R6504) supplemented with 10% foetal bovine serum (Sigma-Aldrich F7524), Penicillin/Streptomycin solution diluted 1:100 (Gibco 15070-063), and fungizone (Gibco, 15290-018), and allowed to adhere overnight at 37° C. in 5% CO2. Compounds are then added to the cell media from a final concentration of 10 μM in 10-fold serial dilutions and the cells are incubated at 37° C. in 5% CO2. After 1 hour, IFNγ (R&D systems Ref. RYD-285-IF-100) is added to a final concentration of […]. After 3 hours of treatment with IFNγ, the cells are washed in PBS, lysed adding 100 μl of protein lysis buffer (62.5 mM Tris pH 6.8 al 6.25%, 2% SDS y 10% glycerol) incubation 10 minutes at room temperature and heating at 95° C. 10 min. The protein content of the lysates is determined by DC protein assay (Biorad, Ref. 5000116). The proteins are resolved by SDS-PAGE and transferred to nitrocellulose membrane (VWR International eurolab, Ref. 732-4007). The membranes are incubated overnight at 4° C. with antibodies specific for total STAT1 (BD Transduction laboratory #610115), phosphoserine-727 STAT1 (Cell Signaling Ref. 9177) they are washed and then incubated with IRDye800 conjugated anti-mouse (Pierce/Cultek, 35521) and Alexa Fluor 680 goat anti-rabbit IgG secondary antibodies (Invitrogen, A21076). The bands are visualized and quantified using an Odyssey infrared imaging system (Li-Cor Biosciences). The percentage of phosphorylated STAT1 vs total STAT1 in cells treated with IFNγ is taken as hundred percent of phosphorylation. The percentage of STAT1 phosphorylation is finally plotted against concentration for each compound and EC50s for intracellular CDK8 inhibition are calculated using ActivityBase from IDBS.

[4] = molecular target: CDK19/Cyclin C (Homo sapiens (Human), UniProt Q9BWU1); assay: CDK19/Cyclin C binding assay (LanthaScreen Eu-Kinase Binding Assay); conditions: read-out: CDK19-CYCC IC50
Experimental: The binding assay relies on the LanthaScreen™ Eu-Kinase Binding Assay (Invitrogen).
Assay conditions were as indicated by the kit manufacturers with the following adaptations: • Assay buffer: 50 mM HEPES, pH 7.5, 1 mM EGTA, 0.01% Brij-35, 10 mM MgCl2 • Assay volume: 20 μl • Incubation time and temperature: 60 min at 25° C. • Cdk19-Cyclin C concentration: 2 nM • Tracer concentration: 20 nM • (Eu)-labelled anti-GST antibody concentration: 2 nM • Tested compound: Serial 1:3 dilutions • Final DMSO concentration in the assay: 1%
(§4) Assays were performed in 384-well plates. The final read out was generated using an EnVision plate reader (Perkin-Elmer).

[5] = test system: Molm13; assay: In vitro cell proliferation assay (CellTiter-Glo), Molm13; assay type: cell-based; conditions: Homo sapiens, MOLM-13; growth inhibition, semiquantitative; read-out: GI50 Molm13
Experimental: as §1, §2, §3

[6] = test system: MDA-MB-231; assay: In vitro cell proliferation assay (CellTiter-Glo), MDA-MB-231; assay type: cell-based; conditions: Homo sapiens, MDA-MB-231; growth inhibition, semiquantitative; read-out: GI50 MDA-MB-231
Experimental: as §1, §2, §3

[7] = molecular target: CDK8/Cyclin C (Homo sapiens (Human), UniProt P49336); assay: CDK8/Cyclin C binding assay (LanthaScreen Eu-Kinase Binding Assay); conditions: binding assay
Experimental: The enzyme has been purchase from Invitrogen (PV4402) as a dimer of full-length His-tagged recombinant human proteins.
as §4

[8] = test system: SW620; assay: Combination assay, SW620; assay type: cell-based, human; conditions: SW620, chemotherapeutic alone, read-out: Chemo GI50
Experimental: (§5) The combination index (CI) of combinations of certain example compounds and various chemotherapeutic agents in the CellTitetI-Glo® in vitro cell proliferation assays may be tested. A combination index score is calculated by the Chou and Talalay method (CalcuSyn software, Biosoft). The strength of synergy is scored using the ranking system Chou and Talalay: CI less than 0.8 indicates synergy, CI between 0.8 and 1.2 indicates additivity and CI greater than 1.2 indicates antagonism.
(§6) The EC50 values of representative combinations are also calculated. The individually measured EC50 values of the chemotherapeutic agent and the example compounds are compared to the EC50 value of the combination. The cell lines are characterised by tumor type. Combination assays are performed as described in: “Pim 1 kinase inhibitor ETP-45299 suppresses cellular proliferation and synergizes with PI3K inhibition”. Blanco-Aparicio, Carmen; Collazo, Ana Maria Garcia; Oyarzabal, Julen; Leal, Juan F.; Albaran, Maria Isabel; Lima, Francisco Ramos; Pequeno, Belen; Ajenjo, Nuria; Becerra, Mercedes; Alfonso, Patricia; Reymundo, Maria Isabel; Palacios, Irene; Mateos, Genoveva; Quinones, Helena; Corrionero, Ana; Carnero, Amancio; Pevarello, Paolo; Lopez, Ana Rodriguez; Fominaya, Jesus; Pastor, Joaquin; Bischoff, James R. Cancer Letters (Shannon, Ireland) 2011, 300(2), 145-153

[9] = molecular target: Haspin kinase (Homo sapiens (Human), UniProt Q8TF76); assay: Haspin kinase assay (ADP-Glo); assay type: biochemical; conditions: ATP 150 μM
Source text: The kinase assay relies on ADP-Glo^KM biochemical kinase assay (Promega). This is a luminescent kinase assay that measures ADP formed from a kinase reaction. Then ADP is converted into ATP, which is transformed into a light signal by Ultra-Glo™ Luciferase. The luminescent signal positively correlates with kinase activity. The assay measures the intrinsic ATPase activity (in the absence of peptidic substrate as phosphate acceptor).
The enzyme was purchase from Invitrogen (PV5708) as the kinase domain of GST tagged recombinant human proteins.
Assay conditions were as indicated by the kit manufacturers with the following adaptations: • Assay buffer: 15 mM HEPES pH 7.4, 20 mM NaCl, 1 mM EGTA, 0.02% Tween 20, 10 mM MgCl2, 0.1 mg/ml BGG • Assay volume: 20 μl • Incubation time and temperature: 60 min at 30° C. • Haspin concentration: 20 nM • ATP concentration: 150 μM • Tested compound: Serial 1:3 dilutions • Final DMSO concentration in the assay: 1%
Assays were performed in 384-well plates. The final read out was generated using an EnVision plate reader (Perkin-Elmer). Luminescent relative units are normalized against the control activity included for each compound (i.e., 100% Haspin activity, without compound) and the percentage of inhibition is calculated.

[10] = molecular target: T1, intracellular CDK8; assay: Endogenous phosphoSTAT1 inhibition in SW620 cells growing in 10% FBS; assay type: cell-based; conditions: semiquantitative, read-out: SW620 P-STAT1(S727)
Experimental: Endogenous phosphoSTAT1 inhibition can be screened in cells growing in 10% FBS. Cells are plated as described before and treated for 8 h with compounds as described before. Then cells are lysated and phospho STAT1 is evaluated as described before. The percentage of phosphorylated STAT1 vs total STAT1 in cells treated with DMSO is taken as hundred percent of phosphorylation. The percentage of STAT1 phosphorylation is finally plotted against concentration for each compound and EC50s for intracellular CDK8 inhibition are calculated using ActivityBase from IDBS.

[11] = test system: HCT116; assay: Combination assay, HCT116; assay type: cell-based; conditions: Homo sapiens, HCT-116; HCT116, chemotherapeutic alone; read-out: Chemo GI50
Experimental: as §5, §6

T1 sequence (P49336 whole entry): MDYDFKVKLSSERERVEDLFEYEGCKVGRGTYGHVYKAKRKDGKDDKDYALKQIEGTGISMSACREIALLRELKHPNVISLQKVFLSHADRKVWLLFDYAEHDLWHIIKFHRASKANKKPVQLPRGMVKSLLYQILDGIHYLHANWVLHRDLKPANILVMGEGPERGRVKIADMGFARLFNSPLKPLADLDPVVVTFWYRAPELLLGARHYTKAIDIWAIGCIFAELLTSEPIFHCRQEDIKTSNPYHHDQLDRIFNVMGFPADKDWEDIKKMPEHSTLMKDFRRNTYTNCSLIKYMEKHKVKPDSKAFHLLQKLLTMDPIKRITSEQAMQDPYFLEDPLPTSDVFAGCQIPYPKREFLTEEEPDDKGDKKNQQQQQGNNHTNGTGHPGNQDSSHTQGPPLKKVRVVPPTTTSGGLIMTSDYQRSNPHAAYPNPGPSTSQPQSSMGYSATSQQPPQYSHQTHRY
T1 sequence (P24863 whole entry partner): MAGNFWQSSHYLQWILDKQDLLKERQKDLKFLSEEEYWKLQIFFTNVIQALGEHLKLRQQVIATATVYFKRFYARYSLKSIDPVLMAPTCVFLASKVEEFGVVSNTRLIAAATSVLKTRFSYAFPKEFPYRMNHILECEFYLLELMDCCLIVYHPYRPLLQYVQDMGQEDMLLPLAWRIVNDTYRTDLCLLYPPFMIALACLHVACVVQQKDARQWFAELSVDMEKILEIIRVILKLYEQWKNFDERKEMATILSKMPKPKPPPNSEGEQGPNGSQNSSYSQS
T1 sequence (Q93074 whole entry partner): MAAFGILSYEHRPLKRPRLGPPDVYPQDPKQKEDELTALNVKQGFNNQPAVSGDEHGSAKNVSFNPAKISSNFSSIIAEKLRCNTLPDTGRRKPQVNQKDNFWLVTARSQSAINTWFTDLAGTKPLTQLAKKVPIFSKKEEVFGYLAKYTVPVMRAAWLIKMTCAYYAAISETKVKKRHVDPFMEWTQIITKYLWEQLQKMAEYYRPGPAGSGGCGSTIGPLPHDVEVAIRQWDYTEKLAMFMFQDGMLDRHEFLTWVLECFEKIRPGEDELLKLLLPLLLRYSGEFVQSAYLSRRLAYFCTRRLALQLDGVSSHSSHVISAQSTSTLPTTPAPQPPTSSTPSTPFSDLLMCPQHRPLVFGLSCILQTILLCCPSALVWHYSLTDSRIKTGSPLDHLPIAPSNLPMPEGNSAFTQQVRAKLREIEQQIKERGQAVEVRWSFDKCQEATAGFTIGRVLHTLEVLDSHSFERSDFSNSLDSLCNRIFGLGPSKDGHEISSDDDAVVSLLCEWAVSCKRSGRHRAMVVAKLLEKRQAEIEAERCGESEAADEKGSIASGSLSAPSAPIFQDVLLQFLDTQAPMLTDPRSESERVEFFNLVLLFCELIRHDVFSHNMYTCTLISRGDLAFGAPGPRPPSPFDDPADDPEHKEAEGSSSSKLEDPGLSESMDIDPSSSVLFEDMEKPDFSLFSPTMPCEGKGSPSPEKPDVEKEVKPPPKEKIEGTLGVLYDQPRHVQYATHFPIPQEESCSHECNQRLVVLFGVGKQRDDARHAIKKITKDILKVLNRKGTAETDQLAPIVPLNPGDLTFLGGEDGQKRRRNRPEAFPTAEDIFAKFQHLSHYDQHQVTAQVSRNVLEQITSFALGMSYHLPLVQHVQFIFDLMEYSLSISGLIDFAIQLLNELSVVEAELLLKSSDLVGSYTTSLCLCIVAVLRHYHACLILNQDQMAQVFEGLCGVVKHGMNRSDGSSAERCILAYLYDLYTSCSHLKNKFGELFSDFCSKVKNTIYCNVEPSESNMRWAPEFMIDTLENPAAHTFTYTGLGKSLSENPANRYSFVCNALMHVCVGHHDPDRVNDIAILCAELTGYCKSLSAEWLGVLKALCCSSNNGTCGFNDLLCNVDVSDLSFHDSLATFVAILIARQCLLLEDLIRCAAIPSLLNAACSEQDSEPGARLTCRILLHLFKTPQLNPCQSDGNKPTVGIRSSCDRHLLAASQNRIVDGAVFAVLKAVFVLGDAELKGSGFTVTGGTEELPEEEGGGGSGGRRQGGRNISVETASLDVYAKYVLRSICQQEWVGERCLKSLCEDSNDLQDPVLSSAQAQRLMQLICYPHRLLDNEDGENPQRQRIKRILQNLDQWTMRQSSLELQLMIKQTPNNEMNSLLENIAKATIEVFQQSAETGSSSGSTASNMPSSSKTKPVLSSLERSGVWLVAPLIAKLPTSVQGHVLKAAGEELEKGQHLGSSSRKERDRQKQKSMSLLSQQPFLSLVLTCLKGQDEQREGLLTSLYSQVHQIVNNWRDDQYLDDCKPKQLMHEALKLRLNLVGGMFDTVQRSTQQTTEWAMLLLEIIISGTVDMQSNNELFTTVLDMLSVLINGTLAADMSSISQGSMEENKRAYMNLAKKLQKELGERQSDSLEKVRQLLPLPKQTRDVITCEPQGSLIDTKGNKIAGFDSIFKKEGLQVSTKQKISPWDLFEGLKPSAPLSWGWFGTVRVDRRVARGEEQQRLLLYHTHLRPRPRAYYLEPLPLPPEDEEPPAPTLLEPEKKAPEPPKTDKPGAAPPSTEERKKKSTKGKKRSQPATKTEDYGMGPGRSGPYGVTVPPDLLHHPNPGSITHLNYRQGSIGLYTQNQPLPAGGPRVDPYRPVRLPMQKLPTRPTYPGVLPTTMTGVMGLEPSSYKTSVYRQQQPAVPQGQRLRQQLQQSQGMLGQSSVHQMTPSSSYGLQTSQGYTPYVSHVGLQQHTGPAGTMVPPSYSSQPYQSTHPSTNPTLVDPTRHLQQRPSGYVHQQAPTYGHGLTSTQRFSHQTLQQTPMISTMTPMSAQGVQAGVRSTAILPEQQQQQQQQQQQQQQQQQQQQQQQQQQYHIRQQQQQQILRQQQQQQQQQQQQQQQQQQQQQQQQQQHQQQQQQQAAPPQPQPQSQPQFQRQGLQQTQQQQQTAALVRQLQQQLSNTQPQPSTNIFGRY
Sequence of CDK8/Cyclin C (P49336 whole entry): as the sequence (P49336 whole entry) above
Sequence of CDK8/Cyclin C (P24863 whole entry partner): as the sequence (P24863 whole entry partner) above
Sequence of CDK19/Cyclin C (Q9BWU1 whole entry): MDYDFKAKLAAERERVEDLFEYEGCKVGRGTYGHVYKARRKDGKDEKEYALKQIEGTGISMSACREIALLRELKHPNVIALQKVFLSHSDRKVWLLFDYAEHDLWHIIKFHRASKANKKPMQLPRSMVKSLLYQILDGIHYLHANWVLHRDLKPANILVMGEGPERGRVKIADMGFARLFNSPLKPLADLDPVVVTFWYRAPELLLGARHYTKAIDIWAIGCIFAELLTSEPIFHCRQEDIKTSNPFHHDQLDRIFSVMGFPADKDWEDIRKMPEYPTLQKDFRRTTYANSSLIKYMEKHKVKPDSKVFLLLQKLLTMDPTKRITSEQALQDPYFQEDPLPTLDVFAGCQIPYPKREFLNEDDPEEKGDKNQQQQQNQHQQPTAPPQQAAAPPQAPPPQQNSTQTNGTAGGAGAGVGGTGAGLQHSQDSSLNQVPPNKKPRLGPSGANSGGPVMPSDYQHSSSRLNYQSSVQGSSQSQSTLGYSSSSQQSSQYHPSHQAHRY
Sequence of CDK19/Cyclin C (P24863 whole entry partner): as the sequence (P24863 whole entry partner) above
Sequence of Haspin kinase (Q8TF76 484-798): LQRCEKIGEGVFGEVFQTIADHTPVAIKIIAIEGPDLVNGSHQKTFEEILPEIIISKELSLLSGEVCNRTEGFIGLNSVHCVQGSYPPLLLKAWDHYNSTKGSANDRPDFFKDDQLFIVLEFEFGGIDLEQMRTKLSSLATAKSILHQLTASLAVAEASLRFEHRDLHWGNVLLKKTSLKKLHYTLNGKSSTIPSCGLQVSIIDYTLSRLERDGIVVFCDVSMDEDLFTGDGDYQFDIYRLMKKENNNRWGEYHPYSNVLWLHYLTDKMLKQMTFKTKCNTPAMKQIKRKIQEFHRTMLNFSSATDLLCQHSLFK

| GI50 [1] | GI50 [2] | pEC50 [3] | pIC50 [4] | GI50 [5] | GI50 [6] | pIC50 [7] | GI50 ([8]; Homo sapiens, SW-620) | pIC50 [9] | pEC50 [10] | GI50 [11] | SMILES | GI50 [8] |
| --- | --- | --- | --- | --- | --- | --- | --- | --- | --- | --- | --- | --- |
| < 1000 nM | < 1000 nM | > 6.30 | 7.06 | < 1000 nM | 1000 to 10000 nM | 7.71 |  |  |  |  | NC(=O)c1cc2c([nH]1)-c1ccncc1O[C@@H]2C1CCCCC1 (single isomer, unassigned) [Example 69] |  |
|  |  |  |  |  |  |  | 500 nM |  |  |  | COc1ccc(S(=O)(=O)Nc2cccnc2Nc2ccc(O)cc2)cc1 [ABT-751, reference compound] |  |
| < 1000 nM | 1000 to 10000 nM |  | 9.11 | < 1000 nM | 1000 to 10000 nM | 9.50 |  |  | > 6.30 |  | CCn1c(C(N)=O)cc2c1-c1ccncc1OC21CCCCC1 [Example 80] |  |
| < 1000 nM | 1000 to 10000 nM |  | 9.32 | 1000 to 10000 nM | 1000 to 10000 nM | 8.36 |  | 7.46 | > 6.30 |  | CC1(C)Oc2cnccc2-c2[nH]c(C(N)=O)c(C3CC3)c21 [Example 86] |  |
|  |  |  |  |  |  |  | 5 nM |  |  | 5 nM | CC(=O)O[C@H]1C(=O)[C@@]2(C)[C@H]([C@H](OC(=O)c3ccccc3)[C@]3(O)C[C@H](OC(=O)[C@H](O)[C@@H](NC(=O)c4ccccc4)c4ccccc4)C(C)=C1C3(C)C)[C@]1(OC(C)=O)CO[C@@H]1C[C@@H]2O [Taxol, paclitaxel, reference compound] |  |

The next lines start with the compound.

| SMILES | GI50 [1] | GI50 [2] | pEC50 [3] | pIC50 [4] | GI50 [5] | GI50 [6] | pIC50 [7] | GI50 ([8]; Homo sapiens, SW-620) | pIC50 [9] | pEC50 [10] | GI50 [11] | GI50 [8] |
| --- | --- | --- | --- | --- | --- | --- | --- | --- | --- | --- | --- | --- |
| NC(=O)c1cc2c([nH]1)-c1ccncc1OC21CCC1 [Example 15] | < 1000 nM | 10000 to 100000 nM |  | 8.85 | < 1000 nM | 1000 to 10000 nM | 8.71 |  | 7.80 | > 6.30 |  |  |
| NC(=O)c1cc2c(n1CCF)-c1ccncc1OC21CCC1 [Example 76] | < 1000 nM | 1000 to 10000 nM |  | 9.08 | < 1000 nM | 1000 to 10000 nM | 9.58 |  | 7.62 | > 6.30 |  |  |
| Cn1c(C(N)=O)cc2c1-c1ccncc1OC21CCCCC1 [Example 83] | < 1000 nM | 1000 to 10000 nM |  | 8.85 | < 1000 nM | 1000 to 10000 nM | 9.56 |  | 8.01 | > 6.30 |  |  |
| O=C1[O][Pt]2([NH][C@@H]3CCCC[C@H]3[NH]2)[O]C1=O [Oxaliplatin, oxaliplatin, reference compound] |  |  |  |  |  |  |  |  |  |  |  | 5000 nM |
